The values that follow come from US8034940B2, “Modulators of glucocorticoid receptor, AP-1, and/or NF-κB activity and use thereof” (Bristol-Myers Squibb Company, priority 2006, dated 2011).

For this experiment, the system named is AP-1 induced transcriptional activity. The experiment can be described thus: Cellular Transrepressional Assay (AP-1 luciferase reporter, PMA-activated A549 cells). It is filed as cell-based. The following applies: for AP-1 Max % inh (Cellular Transrepression Assay) / Emax: maximum inhibition; for Emax: A549, 7 h, read-out: AP-1 Max % inh (Cellular Transrepression Assay). As for the experimental part:
Cellular Transrepressional Assay
To measure the ability of test molecules to inhibit AP-1 induced transcriptional activity we utilized an A549 cell which was stably transfected with a plasmid containing 7× AP-1 DNA binding sites (pAP-1-Luc plasmid, Stratagene Co. La Jolla, Calif.) followed by the gene for luciferase. Cells were activated with 10 ng/ml of […] (PMA) plus or minus test molecules for 7 hours. After 7 hours a luciferase reagent was added to measure luciferase enzymatic activity in the cell. After a 10 minute incubation of luciferase reagent with cells, luminescence was measured in a TopCount luminescence counter. Repression of AP-1 activity was calculated as the percentage decrease in the signal induced by PMA alone. Test molecules were analyzed in the concentration range from 0.1 nM to 40 μM. EC50s were determined by using standard curve fitting methods such as Excel fit (Microsoft Co.).

Setting [1] is: Homo sapiens, Cellular Transrepression Assay.
Setting [2] is: Homo sapiens, A549, Cellular Transrepression Assay.

As for `CC(C)(C(=O)Nc1nnc(C#N)s1)[C@H]1c2ccccc2Oc2nc(-c3ccc(C(=O)N4CCOCC4)cc3)ccc21` [Example 434], under “Cellular Transrepression Assay”, it took 197 nM to reach a half-maximal effect (EC50) and the “AP-1 Max % inh (Cellular Transrepression Assay)” value (“AP-1 Max % inh” for short) came out at 38.45%.
Regarding `CCc1ccc(-c2ccc3c(n2)Oc2ccccc2C3C(C)(C)C(=O)Nc2nncs2)cc1` (stereo not drawn) [Example 206], for the setting “Cellular Transrepression Assay”, the half-maximal effective concentration (EC50) came out at 21.3 nM and the “AP-1 Max % inh” value worked out at 54.73%.
In the case of `CC(C)(C(=O)Nc1nncs1)[C@H]1c2ccccc2Oc2nc(-c3ccc(C(=O)N4CCC[C@@H]4CO)c(F)c3)ccc21` [Example 344], the Emax under setting [1] worked out at 44.5%. Under setting [2], the midpoint of the response, the EC50, lay at 39.6 nM.
Consider `CC(C)(C(=O)Nc1nncs1)[C@H]1c2ccccc2Oc2nc(-c3ccc(C4CCCCC4)cc3)ccc21` [Example 221], for which, for the setting “Cellular Transrepression Assay”, the response was half-maximal at 28.9 nM (EC50) and the “AP-1 Max % inh” value was determined as 62.97%.
For `COc1ccc(NC(=O)Oc2ccc3c(c2)Oc2ccccc2C3C(C)(C)C(=O)Nc2nncs2)cc1` (stereo not drawn) [Example 390], where the note is “Cellular Transrepression Assay”, the response was half-maximal at 42.8 nM (EC50) and the “AP-1 Max % inh” value was 56.63%.
On to `CC(C)(C(=O)Nc1nncs1)C1c2ccccc2Oc2cc(OC(=O)NC3CCCCC3)ccc21` (stereo not drawn) [Example 385], for which, where the note is “Cellular Transrepression Assay”, a half-maximal effect (EC50) was put at 96.5 nM and the “AP-1 Max % inh” value was 28.99%.
Regarding `CC(C)(C(=O)Nc1nncs1)[C@H]1c2ccccc2Oc2nc(-c3cccc(F)c3)ccc21` [Example 225], for the setting “Cellular Transrepression Assay”, the EC50 is 920 nM and the “AP-1 Max % inh” value was determined as 45.65%.
`COc1ccc2c(n1)Oc1ccccc1C2C(C)(C)C(=O)Nc1nc(-c2ccc(F)c3ccccc23)cs1` (stereo not drawn) [Example 78]: under setting [1], the Emax is 65.1%. Under setting [2], this compound registered an EC50 of 164 nM.
With `CCN(C)C(=O)c1ccc(-c2ccc3c(n2)Oc2ccccc2[C@@H]3C(C)(C)C(=O)Nc2nncs2)cc1F` [Example 336], under “Cellular Transrepression Assay”, the concentration for a half-maximal effect (EC50) is 20.4 nM and the “AP-1 Max % inh” value was determined as 55.80%.
With `CCN(CC)C(=O)c1ccc(-c2ccc3c(n2)Oc2ccccc2[C@@H]3C(C)(C)C(=O)Nc2nncs2)cc1F` [Example 259], the Emax under setting [1] amounted to 23.3%. Moreover, under setting [2], the half-maximal effective concentration (EC50) worked out at 72.2 nM.
Take `CC(C)(C(=O)Nc1nncs1)[C@H]1c2ccccc2Oc2nc(-c3ccc(C(=O)N4CCOCC4)s3)ccc21` [Example 463]: the Emax under setting [1] was determined as 26.2%. A half-maximal effect under setting [2] (EC50) was put at 45.3 nM.
Turning to `O=C(CC1c2ccccc2Oc2ccccc21)Nc1nc(-c2cccc3ccccc23)cs1` [Example 4], under setting [1], the Emax came out at 56.5%.
`CCS(=O)(=O)c1ccc(-c2ccc3c(n2)Oc2ccccc2C3C(C)(C)C(=O)Nc2nncs2)cc1` (stereo not drawn) [Example 227]: for the setting “Cellular Transrepression Assay”, the EC50 worked out at 37.9 nM and the “AP-1 Max % inh” value is listed as 42.50%.
On to `COc1ccc(CNc2ccc3c(n2)Oc2ccccc2C3C(C)(C)C(=O)Nc2nncs2)cc1` (stereo not drawn) [Example 128], for which the Emax under setting [1] worked out at 66.3%. Moreover, the response under setting [2] was half-maximal at 92 nM (EC50).
Take `CC(C)(C(=O)Nc1nncs1)C1c2ccccc2Oc2nc(-c3ccc(C(F)(F)F)cc3)ccc21` (stereo not drawn) [Example 182]: under “Cellular Transrepression Assay”, the EC50 worked out at 109 nM and the “AP-1 Max % inh” value turned out to be 33.12%.
Take `CC(C)(C(=O)Nc1nc(-c2cccc3ccccc23)cs1)C1c2ccccc2Cc2ccccc21` [Example 15]: under setting [1], the Emax stood at 65.9%. The compound further gave an EC50 under setting [2] of 501 nM.
On to `CCN(C)C(=O)c1ccc(-c2ccc3c(n2)Oc2ccccc2C3C(C)(C)C(=O)Nc2nncs2)cc1` (stereo not drawn) [Example 251], for which, for the setting “Cellular Transrepression Assay”, the EC50 came to 17.4 nM and the “AP-1 Max % inh” value came to 54.92%.
As to `CC(C)(C(=O)Nc1nncs1)[C@H]1c2ccccc2Oc2nc(-c3ccc(O)c(F)c3)ccc21` [Example 223], where the note is “Cellular Transrepression Assay”, the EC50 is 839 nM and the “AP-1 Max % inh” value came to 27.87%.
`CNC(=O)c1nnc(NC(=O)C(C)(C)[C@H]2c3ccccc3Oc3nc(-c4ccc(C(=O)N5CCOCC5)cc4)ccc32)s1` [Example 422]: under setting [1], the Emax turned out to be 50.5%. This compound also came in with an EC50 under setting [2] of 51.5 nM.
Take `CC(C)(C(=O)Nc1ncns1)[C@H]1c2ccccc2Oc2nc(-c3ccc(C(=O)N4CCCC4)c(F)c3)ccc21` [Example 456]: the Emax under setting [1] is 45.8%. The compound also displayed a half-maximal effective concentration (EC50) under setting [2] of 41.5 nM.
In the case of `CC(C)(C(=O)Nc1nncs1)C1c2ccccc2Oc2cc(-c3ccc(C(=O)N4CCOCC4)cc3)ncc21` (stereo not drawn) [Example 492], the Emax under setting [1] came out at 28.4%. Also, it took 182 nM to reach a half-maximal effect under setting [2] (EC50).
For the compound `CC(C)(C(=O)Nc1nncs1)[C@H]1c2ccccc2Oc2cc(O)ccc21` [Example 90], the Emax under setting [1] stood at 59.5%. A half-maximal effect under setting [2] (EC50) was put at 6.43 nM.
Turning to `CCCCNC(=O)Oc1ccc2c(c1)Oc1ccccc1[C@@H]2C(C)(C)C(=O)Nc1nncs1` [Example 370], the Emax under setting [1] amounted to 57.6%. Besides, a half-maximal response under setting [2] (EC50) required 34.2 nM.
For the compound `Cc1cnc(NC(=O)C(C)(C)C2c3ccccc3Oc3nc(-c4ccc(C(=O)N(C)C)cc4)ccc32)s1` (stereo not drawn) [Example 364], under “Cellular Transrepression Assay”, it took 244 nM to reach a half-maximal effect (EC50) and the “AP-1 Max % inh” value worked out at 58.90%.
With `CCCOc1ccc(-c2ccc3c(n2)Oc2ccccc2C3C(C)(C)C(=O)Nc2nncs2)cc1F` (stereo not drawn) [Example 230], under “Cellular Transrepression Assay”, the response was half-maximal at 550 nM (EC50) and the “AP-1 Max % inh” value worked out at 52.33%.
As for `Cc1nnc(NC(=O)C(C)(C)C2c3ccccc3Oc3cc(O)ccc32)s1` (stereo not drawn) [Example 100], the Emax under setting [1] stood at 71.7%. This compound also registered a concentration giving a half-maximal response (EC50) under setting [2] of 256 nM.
In the same order, the values of `CN(C)C(=O)c1ccc(-c2ccc3c(n2)Oc2ccccc2[C@@H]3C2(C(=O)Nc3nncs3)CCC2)cc1` (single isomer, unassigned) [Example 480] are 44% and 27 nM.
Take `CC(C)(C(=O)Nc1nncs1)[C@H]1c2ccccc2Oc2nc(-c3ccc(C(=O)N4CCCC4)cc3)ccc21` [Example 252]: under “Cellular Transrepression Assay”, a half-maximal response (EC50) required 34.6 nM and the “AP-1 Max % inh” value is reported as 60.94%.
Turning to `COc1ccc(Cc2csc(NC(=O)C(C)(C)C3c4ccccc4Oc4cc(OC)ccc43)n2)cc1` (stereo not drawn) [Example 49], the Emax under setting [1] amounted to 68.8%. The compound further displayed an EC50 under setting [2] of 40.3 nM.
`Cc1nnc(NC(=O)C(C)(C)[C@H]2c3ccccc3Oc3nc(-c4ccc(C(=O)N5CCOCC5)c(F)c4)ccc32)s1` [Example 472]: the Emax under setting [1] came out at 47%. Moreover, under setting [2], the EC50 stood at 26.9 nM.
On to `CC(C)(C)c1ccc(-c2ccc3c(n2)Oc2ccccc2C3C(C)(C)C(=O)Nc2nncs2)cc1` (stereo not drawn) [Example 207], for which, under “Cellular Transrepression Assay”, the midpoint of the response, the EC50, lay at 32.6 nM and the “AP-1 Max % inh” value came out at 37.96%.
Consider `CSc1cnc(NC(=O)C(C)(C)[C@H]2c3ccccc3Oc3nc(-c4ccc(C(=O)N5CCCC5)c(F)c4)ccc32)s1` [Example 424], for which the Emax under setting [1] stood at 59.6%. The compound further yielded an EC50 under setting [2] of 150 nM.
Consider `CN(C)C(=O)c1ccc(-c2ccc3c(n2)Oc2ccccc2[C@@H]3C(C)(C)C(=O)Nc2ncns2)cc1` [Example 471], for which the Emax under setting [1] is 52.4%. Further, the EC50 under setting [2] came to 63.9 nM.
In the same order, the values of `CN(C)C(=O)c1nnc(NC(=O)C(C)(C)[C@H]2c3ccccc3Oc3nc(-c4ccc(C(=O)N5CCCC5)c(F)c4)ccc32)s1` [Example 420] are 42.1% and 41.9 nM.
Turning to `CC(C)(C(=O)Nc1nncs1)C1c2ccccc2Oc2nc(N3CCCCC3)ccc21` (stereo not drawn) [Example 132], the Emax under setting [1] was found to be 50.1%. This compound also gave an EC50 under setting [2] of 96 nM.
Take `CN(C)C(=O)c1ccc(-c2ccc3c(n2)Oc2ccccc2C3C2(C(=O)Nc3nncs3)CCCC2)cc1` (stereo not drawn) [Example 484]: the Emax under setting [1] stood at 29.8%. Under setting [2], this compound had an EC50 of 19.3 nM.
For `Cc1nsc(NC(=O)C(C)(C)C2c3ccc(-c4ccc(C(=O)N5CCOCC5)cc4)nc3Oc3c(F)cccc32)n1` (stereo not drawn) [Example 164], the Emax under setting [1] stood at 58%. The EC50 under setting [2] amounted to 8.5 nM.
With `Cc1ccc(-c2csc(NC(=O)C(C)(C)C3c4ccccc4S(=O)(=O)c4ccccc43)n2)c2ccccc12` [Example 13], under setting [1], the Emax worked out at 60.3%. The compound further showed an EC50 under setting [2] of 566 nM.
As to `C[S+]([O-])c1cnc(NC(=O)C(C)(C)[C@H]2c3ccccc3Oc3nc(-c4ccc(C(=O)N5CCCC5)c(F)c4)ccc32)s1` (stereo partly drawn) [Example 427], the Emax under setting [1] worked out at 25.1%. The compound further registered an EC50 under setting [2] of 188 nM.
Consider `COc1ccc2c(c1)Oc1ccccc1[C@@H]2C(C)(C)C(=O)Nc1nc(Cc2ccc(-c3ccncc3)cc2)cs1` [Example 58], for which the Emax under setting [1] was determined as 70%. The compound further had a concentration giving a half-maximal response (EC50) under setting [2] of 3.71 nM.
For `CC(C)(C(=O)Nc1nncs1)C1c2ccccc2Oc2cc(OC(=O)NCc3ccco3)ccc21` (stereo not drawn) [Example 393], where the note is “Cellular Transrepression Assay”, a half-maximal effect (EC50) was put at 53.4 nM and the “AP-1 Max % inh” value is 43.80%.
Regarding `CC(C)(C(=O)Nc1nncs1)[C@H]1c2ccccc2Oc2nc(-c3ccc(C(=O)N4CCOCC4)cc3)ccc21` [Example 257], where the note is “Cellular Transrepression Assay”, the EC50 worked out at 12.4 nM and the “AP-1 Max % inh” value is 63.96%.
With `COc1ccc(CCNC(=O)Oc2ccc3c(c2)Oc2ccccc2C3C(C)(C)C(=O)Nc2nncs2)cc1` (stereo not drawn) [Example 384], for the setting “Cellular Transrepression Assay”, it took 61.9 nM to reach a half-maximal effect (EC50) and the “AP-1 Max % inh” value is 42.30%.
Take `CC(=O)N1CCN(C(=O)c2ccc(-c3ccc4c(n3)Oc3ccccc3[C@@H]4C(C)(C)C(=O)Nc3nncs3)cc2F)CC1` [Example 324]: under setting [1], the Emax was determined as 54.9%. Further, the EC50 under setting [2] came out at 431 nM.
In the same order, the values of `CC(C)(C(=O)Nc1nc(-c2cccc3ccccc23)cs1)C1c2ccccc2Oc2nc(Cl)ccc21` (stereo not drawn) [Example 74] are 71.2% and 319 nM.
In the same order, the values of `CC(C)(C(=O)Nc1nncs1)[C@H]1c2ccccc2Oc2nc(-c3cn[nH]c3)ccc21` [Example 450] are 26.3% and 59.2 nM.
The matching figures for `CC(C)(C(=O)NC#N)[C@H]1c2ccccc2Oc2nc(-c3ccc(C(=O)N4CCCC4)c(F)c3)ccc21` [Example 398]: 50% and 480 nM.
